Measured values as given in patent US20200188466A1, “COMPOSITIONS OF SCHISANDRA EXTRACTS AND METHODS THEREOF” (Reyoung Corporation, priority 2017, published 2020).
Like-named read-outs stand apart in the source and are kept apart here.

Test: Plasma kinetic study of celastrol with and without Schisandrin A
Format: in vivo, Sprague Dawley rats
Conditions: rats; for Cmax / Tmax / AUC(0-t) / AUC(0-inf) / MRT last / MRT inf / half-life: male, Sprague Dawley, rat, plasma, po, 1.8 mg/kg; for AUC(0-t): read-out: AUC0→t of celastrol; for AUC(0-inf): read-out: AUC0→∞ of celastrol; for MRT last: read-out: MRT0→t of celastrol; for MRT inf: read-out: MRT0→∞ of celastrol; for half-life: read-out: T1/2 of celastrol (converted)
Description: 42 Male Sprague Dawley rats (weight, 210-250 g) were maintained on a 12-hour light/dark cycle with free access to water and lab chow for 10-14 h prior to the experiment. Rats were randomly divided into 7 groups (n=6 each) and groups 2-7 received 0 mg/kg, 5.5 mg/kg, and 11.0 mg/kg, 22.0 mg/kg, 44.0 mg/kg and 88.0 mg/kg of Schisandrin A in 1% CMC-Na (300-800 cps) via oral administration, respectively. After 5 minutes, all the groups received 1.8 mg/kg of celastrol in a solution of 2% DMSO-98% sterile water via oral administration.
After celastrol treatment, blood samples were collected from individual rat at 0.25 h, 0.5 h, 1 h, 2 h, 4 h, 8 h, 12 h, 24 h, 36 h, and 48 h, respectively. Plasma was separated by centrifugation at 8000 rpm for 6 minutes at 4° C. and kept at −80° C. until analysis. Plasma homogenate was injected into LC-MS/MS for analysis.

[1] = Group1, celastrol 1.8 mg/kg oral, no Schisandrin A dose stated
[2] = Group2, Schisandrin A 0 mg/kg oral 5 min before celastrol 1.8 mg/kg oral
[3] = Group3, Schisandrin A 5.5 mg/kg oral 5 min before celastrol 1.8 mg/kg oral
[4] = Group4, Schisandrin A 11.0 mg/kg oral 5 min before celastrol 1.8 mg/kg oral
[5] = Group5, Schisandrin A 22.0 mg/kg oral 5 min before celastrol 1.8 mg/kg oral
[6] = Group6, Schisandrin A 44.0 mg/kg oral 5 min before celastrol 1.8 mg/kg oral
[7] = Group7, Schisandrin A 88.0 mg/kg oral 5 min before celastrol 1.8 mg/kg oral

Q: What does the source list for `CC1=C(O)C(=O)C=C2C1=CC=C1[C@@]2(C)CC[C@@]2(C)[C@@H]3C[C@](C)(C(=O)O)CC[C@]3(C)CC[C@]12C` [celastrol]?
A: T1/2 of celastrol [1]: 10.07 ± 2.48 h; Cmax [1]: 7.03 ± 2.65 ng/mL; Tmax [1]: 5.33 ± 2.07 h; AUC(0-t) [1]: 103 ± 28.2 ng·h/mL; AUC(0-inf) [1]: 125 ± 22.4 ng·h/mL; MRT last [1]: 12.1 ± 1.74 h; MRT inf [1]: 12.1 ± 3.49 h; Cmax [2]: 5.94 ± 1.38 ng/mL; Tmax [2]: 4 h; AUC(0-t) [2]: 93.2 ± 2.74 ng·h/mL; AUC(0-inf) [2]: 107 ± 19.6 ng·h/mL; MRT last [2]: 12 ± 1.82 h; MRT inf [2]: 12 ± 2.33 h; half-life [2]: 12.1 ± 1.77 h; Cmax [3]: 7.13 ± 1.86 ng/mL; Tmax [3]: 5.6 ± 3.58 h; AUC(0-t) [3]: 117 ± 27.8 ng·h/mL; AUC(0-inf) [3]: 124 ± 27.9 ng·h/mL; MRT last [3]: 13.1 ± 2.27 h; MRT inf [3]: 18.8 ± 8.57 h; half-life [3]: 11.5 ± 5.18 h; Cmax [4]: 7.08 ± 0.57 ng/mL; Tmax [4]: 4 h; AUC(0-t) [4]: 123 ± 20.1 ng·h/mL; AUC(0-inf) [4]: 133 ± 20.1 ng·h/mL; MRT last [4]: 12.9 ± 1.05 h; MRT inf [4]: 15.7 ± 1.91 h; half-life [4]: 9.1 ± 1.71 h; Cmax [5]: 7.45 ± 2.72 ng/mL; Tmax [5]: 9.33 ± 4.13 h; AUC(0-t) [5]: 146 ± 48.4 ng·h/mL; AUC(0-inf) [5]: 121 ± 31.7 ng·h/mL; MRT last [5]: 14.2 ± 1.26 h; MRT inf [5]: 16.9 ± 1.65 h; half-life [5]: 10.3 ± 1.76 h; Cmax [6]: 7.43 ± 3.47 ng/mL; Tmax [6]: 10.7 ± 3.27 h; AUC(0-t) [6]: 156 ± 68.5 ng·h/mL; AUC(0-inf) [6]: 198 ± 94.4 ng·h/mL; MRT last [6]: 14.9 ± 2.32 h; MRT inf [6]: 33.1 ± 20.5 h; half-life [6]: 23.8 ± 18 h; Cmax [7]: 9.15 ± 6.48 ng/mL; Tmax [7]: 6.67 ± 4.13 h; AUC(0-t) [7]: 171 ± 99.1 ng·h/mL; AUC(0-inf) [7]: 186 ± 108 ng·h/mL; MRT last [7]: 14.2 ± 1.18 h; MRT inf [7]: 16.7 ± 1.68 h; half-life [7]: 9.29 ± 1.97 h
